Laboratory results as given in the supplement of paper PMC8882468.

Test system: HCI-027 (organoid from a triple-negative breast cancer xenograft)
Assay: CTG-3D luminescence at 96 h relative to day-0 seeding control (ratio to day 0); higher = more growth / less cytotoxicity; PDxO 3D drug screen, 96 h, CTG-3D normalised to day-0 seeding control.
Details: 0.005 µM; days in culture: 201

Row | Structure (SMILES) | CTG-3D luminescence at 96 h
1 | CC(C)(C(=O)NCC(F)(F)C(F)(F)F)C(=O)N[C@@H]1C(=O)Nc2ccccc2-c2ccccc21 | 1.57
2 | C=CC(=O)N1CCC[C@@H](n2nc(-c3ccc(Oc4ccccc4)cc3)c3c(N)ncnc32)C1 [ibrutinib] | 1.94
3 | CNC(=O)c1cccc(-c2ccc3c(N4CCOC[C@@H]4C)nc(N4CCOC[C@@H]4C)nc3n2)c1 [vistusertib] | 2.47
4 | CCN(c1cc(C#CCN2CCOCC2)cc(C(=O)NCc2c(C)cc(C)[nH]c2=O)c1C)[C@H]1CC[C@H](N(C)CCOC)CC1 | 2.92

Same assay, conditions: 0.1 µM; days in culture: 176

Row | Structure (SMILES) | CTG-3D luminescence at 96 h
5 | CC(C)(C(=O)NCC(F)(F)C(F)(F)F)C(=O)N[C@@H]1C(=O)Nc2ccccc2-c2ccccc21 | 0.289
6 | C=CC(=O)N1CCC[C@@H](n2nc(-c3ccc(Oc4ccccc4)cc3)c3c(N)ncnc32)C1 [ibrutinib] | 1.59
7 | CNC(=O)c1cccc(-c2ccc3c(N4CCOC[C@@H]4C)nc(N4CCOC[C@@H]4C)nc3n2)c1 [vistusertib] | 1.73
8 | CCN(c1cc(C#CCN2CCOCC2)cc(C(=O)NCc2c(C)cc(C)[nH]c2=O)c1C)[C@H]1CC[C@H](N(C)CCOC)CC1 | 1.65

Same assay, conditions: 0.1 µM; days in culture: 194

Row | Structure (SMILES) | CTG-3D luminescence at 96 h
9 | CC(C)(C(=O)NCC(F)(F)C(F)(F)F)C(=O)N[C@@H]1C(=O)Nc2ccccc2-c2ccccc21 | 0.35
10 | C=CC(=O)N1CCC[C@@H](n2nc(-c3ccc(Oc4ccccc4)cc3)c3c(N)ncnc32)C1 [ibrutinib] | 1.6
11 | CNC(=O)c1cccc(-c2ccc3c(N4CCOC[C@@H]4C)nc(N4CCOC[C@@H]4C)nc3n2)c1 [vistusertib] | 1.58
12 | CCN(c1cc(C#CCN2CCOCC2)cc(C(=O)NCc2c(C)cc(C)[nH]c2=O)c1C)[C@H]1CC[C@H](N(C)CCOC)CC1 | 2.1

Same assay, conditions: 0.1 µM; days in culture: 201

Row | Structure (SMILES) | CTG-3D luminescence at 96 h
13 | CC(C)(C(=O)NCC(F)(F)C(F)(F)F)C(=O)N[C@@H]1C(=O)Nc2ccccc2-c2ccccc21 | 0.358
14 | C=CC(=O)N1CCC[C@@H](n2nc(-c3ccc(Oc4ccccc4)cc3)c3c(N)ncnc32)C1 [ibrutinib] | 1.93
15 | CNC(=O)c1cccc(-c2ccc3c(N4CCOC[C@@H]4C)nc(N4CCOC[C@@H]4C)nc3n2)c1 [vistusertib] | 2.11
16 | CCN(c1cc(C#CCN2CCOCC2)cc(C(=O)NCc2c(C)cc(C)[nH]c2=O)c1C)[C@H]1CC[C@H](N(C)CCOC)CC1 | 2.89

Same assay, conditions: 1 µM; days in culture: 176

Row | Structure (SMILES) | CTG-3D luminescence at 96 h
17 | CC(C)(C(=O)NCC(F)(F)C(F)(F)F)C(=O)N[C@@H]1C(=O)Nc2ccccc2-c2ccccc21 | 0.192
18 | C=CC(=O)N1CCC[C@@H](n2nc(-c3ccc(Oc4ccccc4)cc3)c3c(N)ncnc32)C1 [ibrutinib] | 1.09
19 | CNC(=O)c1cccc(-c2ccc3c(N4CCOC[C@@H]4C)nc(N4CCOC[C@@H]4C)nc3n2)c1 [vistusertib] | 0.81
20 | CCN(c1cc(C#CCN2CCOCC2)cc(C(=O)NCc2c(C)cc(C)[nH]c2=O)c1C)[C@H]1CC[C@H](N(C)CCOC)CC1 | 1.87

Same assay, conditions: 1 µM; days in culture: 194

Row | Structure (SMILES) | CTG-3D luminescence at 96 h
21 | CC(C)(C(=O)NCC(F)(F)C(F)(F)F)C(=O)N[C@@H]1C(=O)Nc2ccccc2-c2ccccc21 | 0.281
22 | C=CC(=O)N1CCC[C@@H](n2nc(-c3ccc(Oc4ccccc4)cc3)c3c(N)ncnc32)C1 [ibrutinib] | 1.98
23 | CNC(=O)c1cccc(-c2ccc3c(N4CCOC[C@@H]4C)nc(N4CCOC[C@@H]4C)nc3n2)c1 [vistusertib] | 1.03
24 | CCN(c1cc(C#CCN2CCOCC2)cc(C(=O)NCc2c(C)cc(C)[nH]c2=O)c1C)[C@H]1CC[C@H](N(C)CCOC)CC1 | 2.03

Same assay, conditions: 1 µM; days in culture: 201

Row | Structure (SMILES) | CTG-3D luminescence at 96 h
25 | CC(C)(C(=O)NCC(F)(F)C(F)(F)F)C(=O)N[C@@H]1C(=O)Nc2ccccc2-c2ccccc21 | 0.288
26 | C=CC(=O)N1CCC[C@@H](n2nc(-c3ccc(Oc4ccccc4)cc3)c3c(N)ncnc32)C1 [ibrutinib] | 1.49
27 | CNC(=O)c1cccc(-c2ccc3c(N4CCOC[C@@H]4C)nc(N4CCOC[C@@H]4C)nc3n2)c1 [vistusertib] | 1.06
28 | CCN(c1cc(C#CCN2CCOCC2)cc(C(=O)NCc2c(C)cc(C)[nH]c2=O)c1C)[C@H]1CC[C@H](N(C)CCOC)CC1 | 3.09

Same assay, conditions: 10 µM; days in culture: 176

Row | Structure (SMILES) | CTG-3D luminescence at 96 h
29 | CC(C)(C(=O)NCC(F)(F)C(F)(F)F)C(=O)N[C@@H]1C(=O)Nc2ccccc2-c2ccccc21 | 0.176
30 | C=CC(=O)N1CCC[C@@H](n2nc(-c3ccc(Oc4ccccc4)cc3)c3c(N)ncnc32)C1 [ibrutinib] | 0.54
31 | CNC(=O)c1cccc(-c2ccc3c(N4CCOC[C@@H]4C)nc(N4CCOC[C@@H]4C)nc3n2)c1 [vistusertib] | 0.32
32 | CCN(c1cc(C#CCN2CCOCC2)cc(C(=O)NCc2c(C)cc(C)[nH]c2=O)c1C)[C@H]1CC[C@H](N(C)CCOC)CC1 | 2.06

Same assay, conditions: 10 µM; days in culture: 194

Row | Structure (SMILES) | CTG-3D luminescence at 96 h
33 | CC(C)(C(=O)NCC(F)(F)C(F)(F)F)C(=O)N[C@@H]1C(=O)Nc2ccccc2-c2ccccc21 | 0.486
34 | C=CC(=O)N1CCC[C@@H](n2nc(-c3ccc(Oc4ccccc4)cc3)c3c(N)ncnc32)C1 [ibrutinib] | 1.69
35 | CNC(=O)c1cccc(-c2ccc3c(N4CCOC[C@@H]4C)nc(N4CCOC[C@@H]4C)nc3n2)c1 [vistusertib] | 0.803
36 | CCN(c1cc(C#CCN2CCOCC2)cc(C(=O)NCc2c(C)cc(C)[nH]c2=O)c1C)[C@H]1CC[C@H](N(C)CCOC)CC1 | 2.21

Same assay, conditions: 10 µM; days in culture: 201

Row | Structure (SMILES) | CTG-3D luminescence at 96 h
37 | CC(C)(C(=O)NCC(F)(F)C(F)(F)F)C(=O)N[C@@H]1C(=O)Nc2ccccc2-c2ccccc21 | 0.407
38 | C=CC(=O)N1CCC[C@@H](n2nc(-c3ccc(Oc4ccccc4)cc3)c3c(N)ncnc32)C1 [ibrutinib] | 1.41
39 | CNC(=O)c1cccc(-c2ccc3c(N4CCOC[C@@H]4C)nc(N4CCOC[C@@H]4C)nc3n2)c1 [vistusertib] | 0.501
40 | CCN(c1cc(C#CCN2CCOCC2)cc(C(=O)NCc2c(C)cc(C)[nH]c2=O)c1C)[C@H]1CC[C@H](N(C)CCOC)CC1 | 2.64

Same assay, conditions: 100 µM; days in culture: 176

Row | Structure (SMILES) | CTG-3D luminescence at 96 h
41 | CC(C)(C(=O)NCC(F)(F)C(F)(F)F)C(=O)N[C@@H]1C(=O)Nc2ccccc2-c2ccccc21 | 0.165
42 | C=CC(=O)N1CCC[C@@H](n2nc(-c3ccc(Oc4ccccc4)cc3)c3c(N)ncnc32)C1 [ibrutinib] | 0.00595
43 | CNC(=O)c1cccc(-c2ccc3c(N4CCOC[C@@H]4C)nc(N4CCOC[C@@H]4C)nc3n2)c1 [vistusertib] | 0.123
44 | CCN(c1cc(C#CCN2CCOCC2)cc(C(=O)NCc2c(C)cc(C)[nH]c2=O)c1C)[C@H]1CC[C@H](N(C)CCOC)CC1 | 1.32

Same assay, conditions: 100 µM; days in culture: 194

Row | Structure (SMILES) | CTG-3D luminescence at 96 h
45 | CC(C)(C(=O)NCC(F)(F)C(F)(F)F)C(=O)N[C@@H]1C(=O)Nc2ccccc2-c2ccccc21 | 0.484
46 | C=CC(=O)N1CCC[C@@H](n2nc(-c3ccc(Oc4ccccc4)cc3)c3c(N)ncnc32)C1 [ibrutinib] | 0.00765
47 | CNC(=O)c1cccc(-c2ccc3c(N4CCOC[C@@H]4C)nc(N4CCOC[C@@H]4C)nc3n2)c1 [vistusertib] | 0.226
48 | CCN(c1cc(C#CCN2CCOCC2)cc(C(=O)NCc2c(C)cc(C)[nH]c2=O)c1C)[C@H]1CC[C@H](N(C)CCOC)CC1 | 2.02

Same assay, conditions: 100 µM; days in culture: 201

Row | Structure (SMILES) | CTG-3D luminescence at 96 h
49 | CC(C)(C(=O)NCC(F)(F)C(F)(F)F)C(=O)N[C@@H]1C(=O)Nc2ccccc2-c2ccccc21 | 0.247
50 | C=CC(=O)N1CCC[C@@H](n2nc(-c3ccc(Oc4ccccc4)cc3)c3c(N)ncnc32)C1 [ibrutinib] | 0.00768
51 | CNC(=O)c1cccc(-c2ccc3c(N4CCOC[C@@H]4C)nc(N4CCOC[C@@H]4C)nc3n2)c1 [vistusertib] | 0.169
52 | CCN(c1cc(C#CCN2CCOCC2)cc(C(=O)NCc2c(C)cc(C)[nH]c2=O)c1C)[C@H]1CC[C@H](N(C)CCOC)CC1 | 2.22

Same assay, conditions: 625 fM; days in culture: 176

Row | Structure (SMILES) | CTG-3D luminescence at 96 h
53 | CC(C)(C(=O)NCC(F)(F)C(F)(F)F)C(=O)N[C@@H]1C(=O)Nc2ccccc2-c2ccccc21 | 1.96
54 | C=CC(=O)N1CCC[C@@H](n2nc(-c3ccc(Oc4ccccc4)cc3)c3c(N)ncnc32)C1 [ibrutinib] | 1.73
55 | CNC(=O)c1cccc(-c2ccc3c(N4CCOC[C@@H]4C)nc(N4CCOC[C@@H]4C)nc3n2)c1 [vistusertib] | 2.96
56 | CCN(c1cc(C#CCN2CCOCC2)cc(C(=O)NCc2c(C)cc(C)[nH]c2=O)c1C)[C@H]1CC[C@H](N(C)CCOC)CC1 | 2.38

Same assay, conditions: 625 fM; days in culture: 194

Row | Structure (SMILES) | CTG-3D luminescence at 96 h
57 | CC(C)(C(=O)NCC(F)(F)C(F)(F)F)C(=O)N[C@@H]1C(=O)Nc2ccccc2-c2ccccc21 | 1.55
58 | C=CC(=O)N1CCC[C@@H](n2nc(-c3ccc(Oc4ccccc4)cc3)c3c(N)ncnc32)C1 [ibrutinib] | 1.76
59 | CNC(=O)c1cccc(-c2ccc3c(N4CCOC[C@@H]4C)nc(N4CCOC[C@@H]4C)nc3n2)c1 [vistusertib] | 1.84
60 | CCN(c1cc(C#CCN2CCOCC2)cc(C(=O)NCc2c(C)cc(C)[nH]c2=O)c1C)[C@H]1CC[C@H](N(C)CCOC)CC1 | 1.98

Same assay, conditions: 625 fM; days in culture: 201

Row | Structure (SMILES) | CTG-3D luminescence at 96 h
61 | CC(C)(C(=O)NCC(F)(F)C(F)(F)F)C(=O)N[C@@H]1C(=O)Nc2ccccc2-c2ccccc21 | 1.99
62 | C=CC(=O)N1CCC[C@@H](n2nc(-c3ccc(Oc4ccccc4)cc3)c3c(N)ncnc32)C1 [ibrutinib] | 2.11
63 | CNC(=O)c1cccc(-c2ccc3c(N4CCOC[C@@H]4C)nc(N4CCOC[C@@H]4C)nc3n2)c1 [vistusertib] | 2.26
64 | CCN(c1cc(C#CCN2CCOCC2)cc(C(=O)NCc2c(C)cc(C)[nH]c2=O)c1C)[C@H]1CC[C@H](N(C)CCOC)CC1 | 2.42
